These results are taken from patent US7229987B2, “Multicyclic compounds for use as melanin concentrating hormone antagonists in the treatment of obesity and diabetes” (Eli Lilly and Company, priority 2002, dated 2007).

By melting point is commonly meant the temperature, or range, at which the solid turns liquid.

Molecules are shown by their SMILES.

The compound `CN(C)CCCOc1ccc(-c2nnc(CSCCOc3ccccc3)n2-c2ccccc2)cc1.O=C(O)C(=O)O` [Example 247, Dimethyl-(3-{4-[5-(2-phenoxy-ethylsulfanylmethyl)-4-phenyl-4H-[1,2,4]triazol-3-yl]-phenoxy}-propyl)-amine, oxalic acid salt] registered a melting point of 120 to 123 °C.
The figure for `CN(C)CCCOc1ccc(-c2nnc(-c3ccc(Oc4ccccc4)cc3)o2)cc1` [Example 248, Dimethyl-(3-{4-[5-(4-phenoxy-phenyl)-[1,3,4]oxadiazol-2-yl]-phenoxy}-propyl)-amine] is 95 °C; for `CN(C)CCNC(=O)Nc1ccc(-c2cnc(CSCCOc3ccccc3)o2)cc1.O=C(O)/C=C\C(=O)O` [Example 250, 1-(2-Dimethylamino-ethyl)-3-{4-[2-(2-phenoxy-ethylsulfanylmethyl)-oxazol-5-yl]-phenyl}-urea maleate] it is 105 to 107 °C.
In the case of `O=C(NCCN1CCCCC1)Nc1ccc(-c2cnc(CSCCOc3ccccc3)o2)cc1` [Example 252], the melting point lay in the range of 84 to 87 °C.
Under `CN(C)CCNC(=O)Nc1ccc(-c2cnc(COCc3cc4ccccc4o3)o2)cc1` [Example 254, 1-{4-[2-(benzofuran-2-ylmethoxymethyl)-oxazol-5-yl]-phenyl}-3-(2-dimethylamino-ethyl)-urea] stands 150 to 154 °C.
The compound `O=C(NCCN1CCCC1)Nc1ccc(-c2cnc(COCc3cc4ccccc4o3)o2)cc1` [Example 255, 1-{4-[2-(Benzofuran-2-ylmethoxymethyl)-oxazol-5-yl]-phenyl}-3-(2-pyrrolidin-1-yl-ethyl)-urea] gave a melting point of 124 to 126 °C.
The figure for `O=C(NCCN1CCCCC1)Nc1ccc(-c2cnc(COCc3cc4ccccc4o3)o2)cc1` [Example 256, 1-{4-[2-(benzofuran-2-ylmethoxymethyl)-oxazol-5-yl]-phenyl}-3-(2-piperidin-1-yl-ethyl)-urea] is 102 to 104 °C; for `O=C1N(CCN2CCCC2)CCN1c1ccc(-c2nnc(CSCCOc3ccccc3)o2)cc1` [Example 257, 1-{4-[5-(2-phenoxy-ethylsulfanylmethyl)-[1,3,4]oxadiazol-2-yl]-phenyl}-3-(2-pyrrolidin-1-yl-ethyl)-imidazolidin-2-one] it is 125 to 129 °C; for `CN(C)CCNc1ccc(-c2nnc(CSCCOc3ccccc3)o2)cn1` [Example 258, N,N-dimethyl-M-{5-[5-(2-phenoxy-ethylsulfanylmethyl)-[1,3,4]oxadiazol-2-yl]-pyridin-2-yl}-ethane-1,2-diamine] it is 97 to 98 °C.
Under `CN(C)CCCNc1ccc(-c2nnc(CSCCOc3ccccc3)o2)cn1` [Example 259, N,N-Dimethyl-N′-{5-[5-(2-phenoxy-ethylsulfanylmethyl)-[1,3,4]oxadiazol-2-yl]-pyridin-2-yl}-propane-1,3-diamine] stands 94 to 96 °C; under `O=C1CCN(CCCOc2ccc(-c3nnc(CSCCOc4ccccc4)o3)cc2)CC1` [Example 260, 1-(3-{4-[5-(2-Phenoxy-ethylsulfanylmethyl)-[1,3,4]oxadiazol-2-yl]-phenoxy}-propyl)-piperidin-4-one], 55 to 57 °C.
`CC(C)N(CCCOc1ccc(-c2nnc(CSCCOc3ccccc3)o2)cc1)C(C)C` [Example 261, diisopropyl-(3-{4-[5-(2-phenoxy-ethylsulfanylmethyl)-[1,3,4]oxadiazol-2-yl]-phenoxy}-propyl)-amine] came in with a melting point of 30 to 33 °C.
Under `CC(C)N(CCCCOc1ccc(-c2nnc(CSCCOc3ccccc3)o2)cc1)C(C)C` [Example 262, diisopropyl-(4-{4-[5-(2-phenoxy-ethylsulfanylmethyl)-[1,3,4]oxadiazol-2-yl]-phenoxy}-butyl)-amine] stands 42 to 44 °C; under `c1ccc(OCCSCc2nnc(-c3ccc(OCCCN4CCC4)cc3)o2)cc1` [Example 263, 2-[4-(3-azetidin-1-yl-propoxy)-phenyl]-5-(2-phenoxy-ethylsulfanylmethyl)-[1,3,4]oxadiazole], 60 °C; under `N#CCCCOc1ccc(-c2nnc(CSCCOc3ccccc3)o2)cc1` [Example 264, 4-{4-[5-(2-phenoxy-ethylsulfanylmethyl)-[1,3,4]oxadiazol-2-yl]-phenoxy}-butyronitrile], 67 to 68 °C.
Under `c1ccc(OCCSCc2ncc(-c3ccc(OCCN4CCCCCC4)cc3)o2)cc1` [Example 265, 1-(2-{4-[2-(2-phenoxy-ethylsulfanylmethyl)-oxazol-5-yl]-phenoxy}-ethyl)-azepane] stands 35 to 38 °C.
Under `c1ccc(OCCSCc2ncc(-c3ccc(OCCCN4CCCCCC4)cc3)o2)cc1` [Example 266, 1-(3-{4-[2-(2-phenoxy-ethylsulfanylmethyl)-oxazol-5-yl]-phenoxy}-propyl)-azepane] stands 32 to 35 °C.
`O=C(O)C(=O)O.c1ccc(OCCSCc2ncc(-c3ccc(OCCCN4CCCCCCC4)cc3)o2)cc1` [Example 267, 1-(3-{4-[2-(2-phenoxy-ethylsulfanylmethyl)-oxazol-5-yl]-phenoxy}-propyl)-azocane oxalic acid salt] returned a melting point of 89 to 94 °C.
On to `C(=C\c1ccc(-c2cnc(CSCCOc3ccccc3)o2)cc1)/CN1CCCC1` [Example 268, 2-(2-phenoxy-ethylsulfanylmethyl)-5-[4-(3-pyrrolidin-1-yl-propenyl)-phenyl]-oxazole], for which the melting point is 73 to 75 °C.
The compound `CN(C)CCCOc1ccc(-c2nnc(Cc3ccc(Oc4ccccc4)cc3)o2)cc1.O=C(O)C(=O)O` [Example 269, Dimethyl-(3-{4-[5-(4-phenoxy-benzyl)-[1,3,4]oxadiazol-2-yl]-phenoxy}-propyl)-amine, oxalic acid salt] came in with a melting point of 156 to 158 °C.
Under `c1ccc2oc(Cc3nnc(-c4ccc(OCCCN5CCCCC5)cc4)o3)cc2c1` [Example 270, 1-{3-[4-(5-Benzofuran-2-yl-methyl-[1,3,4]oxadiazol-2-yl)-phenoxy]-propyl}-piperidine] stands 76 to 79 °C; under `CN(C)CCCOc1ccc(-c2nnc(CSCCOc3ccc(OC(F)(F)F)cc3)o2)cc1` [Example 274, [3-(4-{5-[2-(4-trifluoromethoxy-phenoxy)-ethylsulfanylmethyl]-[1,3,4]oxadiazol-2-yl}-phenoxy)-propyl]-dimethyl-amine], 92.5 to 93.5 °C; under `CN(C)CCCOc1ccc(-c2nnc(CSCCOc3ccccc3OC(F)(F)F)o2)cc1` [Example 275, [3-(4-{5-[2-(2-trifluoromethoxy-phenoxy)-ethylsulfanylmethyl]-[1,3,4]oxadiazol-2-yl}-phenoxy)-propyl]-dimethyl-amine], 55 to 55.5 °C.
The compound `CN(C)CCCOc1ccc(-c2nnc(CSCCOc3cccc(OC(F)(F)F)c3)o2)cc1` [Example 276, [3-(4-{5-[2-(3-trifluoromethoxy-phenoxy)-ethylsulfanylmethyl]-[1,3,4]oxadiazol-2-yl}-phenoxy)-propyl]-dimethyl-amine] had a melting point of 46 to 46.5 °C.
Under `COc1ccc(OCCSCc2nnc(-c3ccc(OCCCN(C)C)cc3)o2)cc1` [Example 277, [3-(4-{5-[2-(4-methoxy-phenoxy)-ethylsulfanylmethyl]-[1,3,4]oxadiazol-2-yl}-phenoxy)-propyl]-dimethyl-amine] stands 77.5 to 78 °C.
